Assay results as given in publication PMC11597202, “Novel Thiazole-Fused [4,5-g] or [5,4-g]Quinazolin-8-ones and Their Quinazoline Analogues: Synthesis and Biological Evaluation” (Pharmaceuticals, 2024).

Columns and labels:
[1] = In vitro cytotoxic assay, PC-3; type: cell-based; conditions: human, PC-3 cells (prostate cancer cell line); also: 0.1-25 µM tested
Method: (§1) Skin normal fibroblastic cells were purchased from Lonza (Basel, Switzerland). […] All culture media were supplemented by 10% of FBS, 1% of penicillin–streptomycin and 2 mM glutamine.
(§2) Chemicals were solubilized in DMSO at a concentration of 10 mM (stock solution) and diluted in culture medium to the desired final concentrations. […] Cells were plated in 96-well plates (4000 cells/well). Twenty-four hours after seeding, the cells were exposed to chemicals. […] Image acquisition and analysis were performed using a Cellomics ArrayScan VTI/HCS Reader (ThermoScientific, Les Ulis, France). The survival percentages were calculated as the percentage of cell number after compound treatment over cell number after DMSO treatment. The relative IC50 values were calculated using the curve fitting XLfit 5.5.0.5 (idbs) integrated in Microsoft Excel as an add-on.
(§3) 4.3.1. Cell culture. Skin normal fibroblastic cells are purchased from Lonza (Basel, Switzerland). Huh7- […]
(§4) from ATCC (American Type Culture Collection). […]
(§5) supplemented by 10% of FBS, 1% of penicillin-streptomycin and 2 mM glutamine.
(§6) 4.3.2. Cytotoxic assay. Chemicals were solubilized in DMSO at a concentration of 10 mM (stock solution) and diluted in culture medium to the desired final concentrations. The dose effect cytotoxic assays (IC50 determination) were performed by increasing the concentrations of each chemical (final well […]
(§7) Cells were plated in 96-well plates
(§8) (4000 cells/well). Twenty-four hours after seeding, cells were exposed to chemicals. After 48h of treatment, cells were washed in PBS and fixed in cooled 90% ethanol/5% acetic acid for 20 min and the […]
(§9) Image acquisition and analysis were performed using a Cellomics ArrayScan VTI/HCS Reader (ThermoScientific). The survival percentages were calculated as the percentage of cell number after compound treatment over cell number after DMSO treatment. The relative IC50 were calculated using the curve fitting XLfit 5.5.0.5 (idbs) integrated in Microsoft Excel as an add-on. The 4 Parameter Logistic Model or Sigmoidal Dose-Response Model describing the sigmoid-shaped response pattern was used (fit = (A+[(B-A)/(1+[(C/x)^D])]) where fit is the response and X is the tested concentration of the compound. The lower asymptote is A (also referred to as the bottom of the curve or lower plateau or the min) and the upper asymptote is B (also referred to as the top of the curve or upper plateau or the max). The slope of the linear part of the curve is described by the factor D. The parameter C is the concentration corresponding to the response midway between A and B. C is called “relative IC50” because it refers to the maximum response obtained by a […]
(§10) The results are represented as the mean ± standard error (SE) calculated from at least three independent experiments.

[2] = In vitro cytotoxic assay, Caco-2; type: cell-based; conditions: human, Caco-2 cells (colon cancer cell line); also: 0.1-25 µM tested
Method: as §1, §2, §3, §4, §5, §6, §7, §8, §9, §10

CDK9/CyclinT = biological target: T1, CDK9/CyclinT (Homo sapiens, UniProt P50750); test: ADP-Glo kinase inhibition assay, CDK9/CyclinT; type: biochemical; conditions: percentage of maximum activity of the DMSO control, mean n = 2, 10 µM ATP, read-out: Residual activity CDK9/CyclinT; for remaining activity at 1 µM: 1 μM compound; for remaining activity at 10 µM: 10 μM compound
T1 construct: host or cells: Sf9 insect cells (baculovirus)
Method: Kinase enzymatic activities were assayed in 384-well plates using the ADP-Glo^TM assay kit (Promega, Madison, WI, USA) according to the recommendations of the manufacturer. This luminescent ADP detection assay was described by Zegzouti and co-workers and provides a homogeneous and high-throughput screening method to measure kinase activity by quantifying the amount of ADP produced during a kinase reaction. Briefly, the reactions were carried out in a final volume of 6 µL for 30 min at 30 °C in an appropriate kinase buffer (10 mM MgCl2, 1 mM EGTA, 1 mM DTT, 25 mM Tris-HCl pH 7.5, 50 µg/mL heparin), with peptide or protein as substrate in the presence of 10 µM ATP. Peptide substrates were obtained from ProteoGenix (Schiltigheim, France) or Sigma for Histone H1, Poly (L-glutamic acid–L-tyrosine) sodium salt, Casein and MBP. After that, 6 µL of ADP-Glo^TM Kinase Reagent was added to stop the kinase reaction. After an incubation time of 50 min at room temperature (rt), 12 µL of Kinase Detection Reagent was added for one hour at rt. The transmitted signal was measured using the Envision (PerkinElmer, Waltham, MA, USA) microplate luminometer and expressed as Relative Light Units (RLUs). Kinase activities are expressed as percentages of remaining kinase activities detected after treatment with 1 or 10 µM of the tested compounds. The maximum kinase activity was measured in the absence of inhibitor but with an equivalent dose of DMSO (solvent of the tested compounds).
3. Kinase inhibition assays
Kinase enzymatic activities were assayed in 384-well plates using the ADP-GloTM assay kit (Promega, Madison, WI) according to the recommendations of the manufacturer. This luminescent ADP detection assay was described by Zegzouti and co-workers and provides a homogeneous and high-throughput screening method to measure kinase activity by quantifying the amount of ADP produced during a kinase reaction. Briefly, the reactions were carried out in a final volume of 6 µl for 30 min at 30°C in appropriate kinase buffer (10 mM MgCl2, 1 mM EGTA, 1 mM DTT, 25 mM Tris-HCl pH 7.5, 50 µg/mL heparin), with peptide or protein as substrate in the presence of 10 µM ATP. Peptide substrates were obtained from ProteoGenix (Schiltigheim, France) or Sigma for Histone H1, Poly (L-glutamic acid – L-tyrosine) sodium salt, Casein and MBP. After that, 6 µL of ADP-GloTM Kinase Reagent was added to stop the kinase reaction. After an incubation time of 50 min at room temperature (rt), 12 µL of Kinase Detection Reagent was added for 1 h at rt. The transmitted signal was measured using the Envision (PerkinElmer, Waltham, MA) microplate luminometer and expressed in Relative Light Unit (RLU). Kinase activities are expressed in percentages of remaining kinase activities detected after treatment with 1 or 10 µM of the tested compounds. The maximal kinase activity is measured in the absence of inhibitor but with an equivalent dose of DMSO (solvent of the tested compounds).
Table. Human protein kinases tested in the panel: CDK9, HASPIN, PIM1, GSK3b, CK1ε, JAK3, CLK1 […]
Protein Kinase Enzyme Description Substrate1
(Family) (Working concentration)
CDK9/CyclinT Human, recombinant, expressed by Peptide:
(CMGC) baculovirus in Sf9 insect cells […]
CLK1 Human, recombinant, expressed by Peptide: […]
(CMGC) baculovirus in Sf9 insect cells (57.3µM)
DYRK1A Human, recombinant, expressed by Peptide: […]
(CMGC) baculovirus in Sf9 insect cells (10.7µM)
PIM1 Human proto-oncogene, recombinant, Peptide: […]
(CAMK) expressed in bacteria (630 µM)
GSK3 Human, recombinant, expressed by Peptide:
(CMGC) baculovirus in Sf9 insect cells […]pEDEEE 3
HASPIN Human, kinase domain, amino acids 470 to Histone H3 peptide (1-21):
(Other) 798, recombinant, expressed in bacteria […] (8µM)
CK1ε Human, recombinant, expressed by Peptide: […]pAYSITA 2
(CK1) baculovirus in Sf9 insect cells (170µM)
JAK3 Human, recombinant, expressed by Peptide: […]
(TK) baculovirus in Sf9 insect cells (94µM) […]

T1 sequence (P50750 whole entry): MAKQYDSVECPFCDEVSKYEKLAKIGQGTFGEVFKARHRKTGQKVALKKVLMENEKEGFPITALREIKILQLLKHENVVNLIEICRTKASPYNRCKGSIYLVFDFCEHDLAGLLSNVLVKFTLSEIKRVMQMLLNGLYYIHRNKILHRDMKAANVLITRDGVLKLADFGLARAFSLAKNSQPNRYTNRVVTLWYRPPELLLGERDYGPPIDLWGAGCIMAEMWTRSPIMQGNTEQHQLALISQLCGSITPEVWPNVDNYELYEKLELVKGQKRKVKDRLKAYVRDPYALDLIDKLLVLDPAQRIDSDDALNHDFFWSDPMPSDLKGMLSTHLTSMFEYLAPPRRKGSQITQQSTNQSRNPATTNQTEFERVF
T1 sequence (O60563 whole entry partner): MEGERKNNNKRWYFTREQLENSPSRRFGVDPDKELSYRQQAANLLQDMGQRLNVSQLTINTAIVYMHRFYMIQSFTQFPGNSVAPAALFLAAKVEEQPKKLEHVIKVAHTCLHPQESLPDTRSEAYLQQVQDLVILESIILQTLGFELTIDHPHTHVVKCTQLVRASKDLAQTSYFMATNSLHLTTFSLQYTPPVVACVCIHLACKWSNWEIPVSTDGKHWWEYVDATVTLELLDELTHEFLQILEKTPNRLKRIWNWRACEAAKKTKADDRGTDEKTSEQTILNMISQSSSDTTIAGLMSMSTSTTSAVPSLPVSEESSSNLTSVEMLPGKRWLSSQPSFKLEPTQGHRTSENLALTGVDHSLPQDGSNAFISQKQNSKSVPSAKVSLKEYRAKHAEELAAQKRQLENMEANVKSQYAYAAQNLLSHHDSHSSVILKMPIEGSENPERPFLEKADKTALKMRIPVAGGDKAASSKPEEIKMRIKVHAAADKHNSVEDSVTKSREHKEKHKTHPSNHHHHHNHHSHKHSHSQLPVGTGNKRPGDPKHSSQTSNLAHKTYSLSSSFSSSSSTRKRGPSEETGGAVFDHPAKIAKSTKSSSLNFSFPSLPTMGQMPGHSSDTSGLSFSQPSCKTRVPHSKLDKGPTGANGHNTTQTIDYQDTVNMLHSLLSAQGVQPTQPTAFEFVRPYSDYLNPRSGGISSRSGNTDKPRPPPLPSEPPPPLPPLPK

Row | Compound | IC50 at 48 h [1] [µM] | IC50 at 48 h [2] [µM] | remaining activity at 1 µM (CDK9/CyclinT) [%] | remaining activity at 10 µM (CDK9/CyclinT) [%]
1 | COC(=N)c1nc2cc3c(=O)n(Cc4ccccc4)cnc3cc2s1 [Compound 6a, Methyl 7-benzyl-8-oxo-7,8-dihydrothiazolo[4,5-g]quinazoline-2-carbimidate] | 20 | 17 | 103 | 101
2 | COC(=N)c1nc2cc3ncn(Cc4ccccc4)c(=O)c3cc2s1 [Compound 6b, Methyl 7-benzyl-8-oxo-7,8-dihydrothiazolo[5,4-g]quinazoline-2-carbimidate] | 2 | 2 | 107 | 104
3 | COC(=N)c1nc2c(ccc3c(=O)n(Cc4ccccc4)cnc32)s1 [Compound 6c, Methyl 7-benzyl-6-oxo-6,7-dihydrothiazolo[5,4-h]quinazoline-2-carbimidate] | 8 | 6 | 105 | 101
4 | COC(=N)c1nc2ccc3c(=O)n(Cc4ccccc4)cnc3c2s1 [Compound 6d, Methyl 7-benzyl-6-oxo-6,7-dihydrothiazolo[4,5-h]quinazoline-2-carbimidate] | 10 | 10 | 106 | 94
5 | COC(=N)c1nc2cc3c(Nc4ccc(OC)cc4F)ncnc3cc2s1 [Compound 15a, Methyl 8-[(2-fluoro-4-methoxyphenyl)amino]thiazolo[4,5-g]quinazoline-2-carbimidate] | – | – | 101 | 100
6 | COC(=N)c1nc2cc3ncnc(Nc4ccc(OC)cc4F)c3cc2s1 [Compound 15b, Methyl 8-[(2-fluoro-4-methoxyphenyl)amino]thiazolo[5,4-g]quinazoline-2-carbimidate] | – | – | 98 | 110
7 | COC(=N)c1nc2ccc3ncn(Cc4ccccc4)c(=O)c3c2s1 [Compound I, methyl 8-benzyl-9-oxo-8,9-dihydrothiazolo[5,4-f]quinazoline-2-carbimidate, reference compound] | 20 | 12 | 91 | 41
8 | COC(=N)c1nc2ccc3ncnc(Nc4ccc(OC)cc4F)c3c2s1 [Compound II, methyl 9-[(2-fluoro-4-methoxyphenyl)amino]thiazolo[5,4-f]quinazoline-2-carbimidate, reference compound] | 4 | 3 | 86 | 59
